# Experiments:
# B-RAF G466V = target: T1, B-RAF G466V (Homo sapiens, UniProt P15056, G466V); assay: Target protein degradation, assay B: T-Rex 293 cells, HA-B-RAF_G466V, 96 well format; assay type: cell-based; conditions: T-Rex 293 HA-B-RAF_G466V cells, 24 hours, Examples 1-82
# T1 construct: expressed in transfected cells; host or cells: T-Rex 293 cells (Invitrogen #R71007)
# Description: B. T-Rex 293 Cells (96 Well Format)
# (§1) T-Rex 293 cells were purchased from Invitrogen (#R71007), and stably transfected with a pcDNA4/TO_HA-B-RAF_G466V construct, using 400 ug Zeocin for selection. G466V cells are plated in ulbecco's Modified Eagle Medium (DMEM; Gibco #11965118) containing 10% fetal bovine serum (FBS; Gibco #16000044) and 0.75 ng/mL doxycycline (Selleckchem #4163) at a density of 5,000 cells/well in 50 μl on poly-D-lysine (PDL) coated, black clear bottom 96-well plates (Corning #354640) and incubated for 24 hours at 37° C. with 5% CO2. The following day 50 ul of tested compound was added at 2× concentration in DMEM with a final concentration ranging from 30 nM to 3 pM in 0.1% dimethylsulfoxide (DMSO), and incubated for 24 hours at 37° C. with 5% CO2. At the end of the experimental treatment, the media was flicked off and cells washed once with phosphate-buffered saline (PBS)++(PBS with CaCl and MgCl) and gently replacing with 200 μl PBS++ per well. The PBS++ was removed and 50 uL 4% paraformaldehyde (PFA; EMS #15710) in PBS++ was added, and incubate at room temperature for 15 minutes. Cells were washed once with PBS++ and 50 uL 0.1% Triton X-100 (Fisher #BP151-500) in PBS++ was added. Plate was incubate for 5 minutes at room temperature. Cells were was once with PBS++. Cells were blocked with 100 uL Licor blocking buffer (Licor #927-50000) for 1 hour at room temperature. Next, 50 uL of HA antibody (CST #3724) at 1:1000 in Licor blocking buffer was added, and the plate icubate overnight at 4° C. The plates were parafilmed to prevent evaporation. Plate was washed three times with 200 uL PBS++. Fifty microliters of HCS secondary antibody solution [1:1000 Hoechst (Invitrogen #H3570), 1:1000 phalloidin (Invitrogen #A22287) and 1:5000 Alexa fluor (Invitrogen #A11008)] was added and incubated for 1 hour. Plate was wash three times with 200 uL PBS++, and imaged on a high content reader (ImageXpress Micro XLS, Molecular Devices).
# (§2) The concentration of an exemplary compound that leads to half maximal degradation (DC50) as well as the maximum degradation observed (Dmax, conventionally expressed as a percentage of control) is shown below in Table 2.
# B-RAF V600E = target: T2, B-RAF V600E (Homo sapiens, UniProt P15056, V600E); assay: Target protein degradation, assay A: T-Rex 293 cells, HA-B-RAF_V600E, 96 well format; assay type: cell-based; conditions: T-Rex 293 HA-B-RAF_V600E cells, 24 hours, Examples 1-82
# T2 construct: expressed in transfected cells; host or cells: T-Rex 293 cells (Invitrogen #R71007)
# T2 sequence (P15056 whole entry V600E): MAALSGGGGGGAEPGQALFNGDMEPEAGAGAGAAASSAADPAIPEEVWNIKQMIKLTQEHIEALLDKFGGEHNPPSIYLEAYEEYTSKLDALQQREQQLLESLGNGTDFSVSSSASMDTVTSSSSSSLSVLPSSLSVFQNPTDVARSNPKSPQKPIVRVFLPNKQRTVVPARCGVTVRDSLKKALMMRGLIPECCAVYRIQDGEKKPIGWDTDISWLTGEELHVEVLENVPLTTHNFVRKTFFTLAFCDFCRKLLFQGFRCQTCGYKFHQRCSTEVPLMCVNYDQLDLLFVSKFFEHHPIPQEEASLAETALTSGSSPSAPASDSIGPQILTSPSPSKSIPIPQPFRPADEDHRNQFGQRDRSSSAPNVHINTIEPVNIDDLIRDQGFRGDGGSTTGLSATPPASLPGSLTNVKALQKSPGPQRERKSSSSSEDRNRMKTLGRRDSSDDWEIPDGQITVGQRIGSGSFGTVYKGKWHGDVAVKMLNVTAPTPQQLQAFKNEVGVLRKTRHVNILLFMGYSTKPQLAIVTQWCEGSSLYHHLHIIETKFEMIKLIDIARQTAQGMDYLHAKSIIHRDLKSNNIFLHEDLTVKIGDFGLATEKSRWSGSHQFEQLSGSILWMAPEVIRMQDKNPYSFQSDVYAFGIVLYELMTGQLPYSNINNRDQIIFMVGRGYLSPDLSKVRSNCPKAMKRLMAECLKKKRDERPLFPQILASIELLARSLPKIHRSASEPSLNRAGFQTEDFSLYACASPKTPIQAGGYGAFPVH
# Description: A. T-Rex 293 Cells (96 well format)
# as §1, with “pcDNA4/TO_HA-B-RAF_V600E” for “pcDNA4/TO_HA-B-RAF_G466V”, “V600e” for “G466V”, “1” for “0.75”, “1 μM to 0.1” for “30”, “nM” for “nM to 3 pM”
# as §2
# T1 sequence (P15056 whole entry G466V): as the sequence (P15056 whole entry V600E) above, with G466V, E600V counted along it
smiles,measurement,setting,value
"N#Cc1c(NS(=O)(=O)N2CC[C@@H](F)C2)ccc(F)c1Oc1ccc2ncn(-c3ccc(N4CCC(c5ccc6c(c5)C(=O)N(C5CCC(=O)NC5=O)C6)CC4)cc3)c(=O)c2c1 (stereo partly drawn) [Example 32, (3R)-N-(2-cyano-3-{[3-(4-{4-[2-(2,6-dioxopiperidin-3-yl)-3-oxo-2,3-dihydro-1H-isoindol-5-yl]piperidin-1-yl}phenyl)-4-oxo-3,4-dihydroquinazolin-6-yl]oxy}-4-fluorophenyl)-3-fluoropyrrolidine-1-sulfonamide]",DC50,B-RAF G466V,> 30 nM
same,DC50,B-RAF V600E,50 to 500 nM
same,Dmax,B-RAF V600E,35 to 70%
"N#Cc1c(NS(=O)(=O)N2CC[C@@H](F)C2)ccc(F)c1Oc1ccc2ncn(-c3ccc(N4CCN(C(=O)CC5(O)CCN(c6ccc7c(c6)CN([C@H]6CCC(=O)NC6=O)C7=O)CC5)CC4)nc3)c(=O)c2c1 [Example 65, (3R)-N-(2-cyano-3-{[3-(6-{4-[2-(1-{2-[(3S)-2,6-dioxopiperidin-3-yl]-1-oxo-2,3-dihydro-1H-isoindol-5-yl}-4-hydroxypiperidin-4-yl)acetyl]piperazin-1-yl}pyridin-3-yl)-4-oxo-3,4-dihydroquinazolin-6-yl]oxy}-4-fluorophenyl)-3-fluoropyrrolidine-1-sulfonamide]",DC50,B-RAF G466V,10 to 30 nM
same,Dmax,B-RAF G466V,35 to 70%
same,DC50,B-RAF V600E,> 500 nM
"N#Cc1c(NS(=O)(=O)N2CC[C@@H](F)C2)ccc(F)c1Oc1ccc2ncn(-c3ccc(N4CCN(C(=O)CC5(O)CCN(c6ccc(C7CCC(=O)NC7=O)cc6F)CC5)CC4)cc3)c(=O)c2c1 (stereo partly drawn) [Example 66, (3R)-N-{2-cyano-3-[(3-(4-[4-(2-{1-[4-(2,6-dioxopiperidin-3-yl)-2-fluorophenyl]-4-hydroxypiperidin-4-yl}acetyl)piperazin-1-yl]phenyl}-4-oxo-3,4-dihydroquinazolin-6-yl)oxy]-4-fluorophenyl}-3-fluoropyrrolidine-1-sulfonamide]",DC50,B-RAF G466V,> 30 nM
same,DC50,B-RAF V600E,50 to 500 nM
same,Dmax,B-RAF V600E,35 to 70%
"N#Cc1c(NS(=O)(=O)N2CC[C@@H](F)C2)ccc(F)c1Oc1ccc2ncn(-c3ccc(N4CCN(C(=O)CC5(O)CCN(c6ccc(NC7CCC(=O)NC7=O)cc6F)CC5)CC4)cc3)c(=O)c2c1 (stereo partly drawn) [Example 67, (3R)-N-{2-cyano-3-[(3-(4-{4-[2-(1-{4-[(2,6-dioxopiperidin-3-yl)amino]-2-fluorophenyl}-4-hydroxypiperidin-4-yl)acetyl]piperazin-1-yl}phenyl)-4-oxo-3,4-dihydroquinazolin-6-yl]oxy}-4-fluorophenyl)-3-fluoropyrrolidine-1-sulfonamide]",DC50,B-RAF G466V,> 30 nM
same,DC50,B-RAF V600E,50 to 500 nM
same,Dmax,B-RAF V600E,35 to 70%
"N#Cc1c(NS(=O)(=O)N2CC[C@@H](F)C2)ccc(F)c1Oc1ccc2ncn(-c3cnc(N4CCN(C(=O)CC5(O)CCN(c6ccc7c(c6)CN([C@H]6CCC(=O)NC6=O)C7=O)CC5)CC4)nc3)c(=O)c2c1 [Example 68, (3R)-N-(2-cyano-3-{[3-(2-{4-[2-(1-{2-[(3S)-2,6-dioxopiperidin-3-yl]-1-oxo-2,3-dihydro-1H-isoindol-5-yl}-4-hydroxypiperidin-4-yl)acetyl]piperazin-1-yl}pyrimidin-5-yl)-4-oxo-3,4-dihydroquinazolin-6-yl]oxy}-4-fluorophenyl)-3-fluoropyrrolidine-1-sulfonamide]",DC50,B-RAF G466V,1 to 10 nM
same,Dmax,B-RAF G466V,35 to 70%
same,DC50,B-RAF V600E,50 to 500 nM
same,Dmax,B-RAF V600E,35 to 70%
"N#Cc1c(NS(=O)(=O)N2CC[C@@H](F)C2)ccc(F)c1Oc1ccc2ncn(-c3ccc(N4CCN(C(=O)CC5(O)CCN(c6ccc(C7CCC(=O)NC7=O)cc6F)CC5)CC4)nc3)c(=O)c2c1 (stereo partly drawn) [Example 69, (3R)-N-{2-cyano-3-[(3-{6-[4-(2-{1-[4-(2,6-dioxopiperidin-3-yl)-2-fluorophenyl]-4-hydroxypiperidin-4-yl}acetyl)piperazin-1-yl]pyridin-3-yl}-4-oxo-3,4-dihydroquinazolin-6-yl)oxy]-4-fluorophenyl}-3-fluoropyrrolidine-1-sulfonamide]",DC50,B-RAF G466V,1 to 10 nM
same,Dmax,B-RAF G466V,35 to 70%
same,DC50,B-RAF V600E,50 to 500 nM
same,Dmax,B-RAF V600E,35 to 70%
"N#Cc1c(NS(=O)(=O)N2CC[C@@H](F)C2)ccc(F)c1Oc1ccc2ncn(-c3ccc(N4CCN(C(=O)CC5(O)CCN(c6ccc(NC7CCC(=O)NC7=O)cc6F)CC5)CC4)nc3)c(=O)c2c1 (stereo partly drawn) [Example 70, (3R)-N-(2-cyano-3-{[3-(6-{4-[2-(1-{4-[(2,6-dioxopiperidin-3-yl)amino]-2-fluorophenyl}-4-hydroxypiperidin-4-yl)acetyl]piperazin-1-yl}pyridin-3-yl)-4-oxo-3,4-dihydroquinazolin-6-yl]oxy}-4-fluorophenyl)-3-fluoropyrrolidine-1-sulfonamide]",DC50,B-RAF G466V,1 to 10 nM
same,Dmax,B-RAF G466V,≤ 35%
same,DC50,B-RAF V600E,50 to 500 nM
same,Dmax,B-RAF V600E,35 to 70%
"N#Cc1c(NS(=O)(=O)N2CC[C@@H](F)C2)ccc(F)c1Oc1ccc2ncn(-c3ccc(N4CCN(c5ccc6c(c5)C(=O)N(C5CCC(=O)NC5=O)C6=O)CC4)cc3)c(=O)c2c1 (stereo partly drawn) [Example 71, (3R)-N-(2-cyano-3-{[3-(4-{4-[2-(2,6-dioxopiperidin-3-yl)-1,3-dioxo-2,3-dihydro-1H-isoindol-5-yl]piperazin-1-yl}phenyl)-4-oxo-3,4-dihydroquinazolin-6-yl]oxy}-4-fluorophenyl)-3-fluoropyrrolidine-1-sulfonamide]",DC50,B-RAF G466V,> 30 nM
same,DC50,B-RAF V600E,> 500 nM
"N#Cc1c(NS(=O)(=O)N2CC[C@@H](F)C2)ccc(F)c1Oc1ccc2ncn(-c3ccc(N4CCN(c5ccc(C(=O)NC6CCC(=O)NC6=O)c(F)c5)CC4)cc3)c(=O)c2c1 (stereo partly drawn) [Example 72, 4-[4-(4-{6-[2-cyano-6-fluoro-3-({[(3R)-3-fluoropyrrolidin-1-yl]sulfonyl}amino)phenoxy]-4-oxo-3,4-dihydroquinazolin-3-yl}phenyl)piperazin-1-yl]-N-(2,6-dioxopiperidin-3-yl)-2-fluorobenzamide]",DC50,B-RAF G466V,> 30 nM
same,DC50,B-RAF V600E,> 500 nM
"N#Cc1c(NS(=O)(=O)N2CC[C@@H](F)C2)ccc(F)c1Oc1ccc2ncn(-c3ccc(N4CCN(CC5CCN(c6ccc7c(c6F)CN([C@H]6CCC(=O)NC6=O)C7=O)CC5)CC4)cc3)c(=O)c2c1 [Example 73, (3R)—N-(2-cyano-3-{[3-(4-{4-[(1-{2-[(3S)-2,6-dioxopiperidin-3-yl]-4-fluoro-1-oxo-2,3-dihydro-1H-isoindol-5-yl}piperidin-4-yl)methyl]piperazin-1-yl}phenyl)-4-oxo-3,4-dihydroquinazolin-6-yl]oxy}-4-fluorophenyl)-3-fluoropyrrolidine-1-sulfonamide]",DC50,B-RAF G466V,1 to 10 nM
same,Dmax,B-RAF G466V,35 to 70%
same,DC50,B-RAF V600E,5 to 50 nM
same,Dmax,B-RAF V600E,35 to 70%

# Reference: patent US11957759B1, “Rapidly accelerated fibrosarcoma (RAF) degrading compounds and associated methods of use” (Arvinas Operations, Inc., priority 2022, dated 2024)
